Data as given in US20020155443A1, “Metal binding DNA interactive compounds” (priority 2000, published 2002).

What was measured:
[1] = test system: Form I DNA; experiment: Cleavage of Form I DNA under mildly alkaline conditions; assay type: biochemical; settings: mildly alkaline (pH 8.5) conditions
Description: It is believed that the DNA damage due to 2.12 is insensitive to either the addition of radical scavengers or the exclusion of oxygen. Additionally, treatment of a methanolic solution of 2.12 with aqueous NaOH led to the production of the bis(enol ether) 2.13 as depicted in FIG. 4.

[2] = test system: B16 murine melanoma cells; experiment: Growth inhibition of B16 murine melanoma cells, MTT assay; assay type: cell-based; settings: Mus musculus, B16, read-out: IC50, growth inhibition
Protocol: The growth inhibitory activities of bis(propargylic) sulfone crown ethers 2.47 and 2.48 against B16 murine melanoma cells were determined calorimetrically with an MTT assay conducted by the Institute for Drug Development at the Cancer Research and Therapy Center in San Antonio, Tex.

melting point	Structure (SMILES)	other results
176.5 to 177.5 °C	O=S1(=O)CC#CCOc2ccccc2OCC#CC1 [Compound 2.10]	
	O=S1(=O)CC#CCOCCOCCOCCOCC#CC1 [Compound 2.12]	cleavage of Form I DNA [1]: dose-dependent cleavage
79.5 to 80.5 °C	CCOC(=O)c1cccc(CS(=O)(=O)CC#CCO)c1 [Compound 3.3]	
	C1#CCOCCOCCOCCOCCOCCOCC#C/C=C\1 [Compound 4.7]	IC50 [2]: 68 µM
